Key:
KM rats = assay: Toxicity test, single oral administration to rats; type: in vivo; settings: for Oral administration LD50: male and female KM rats, single oral dose in corn oil, observed to the fourteenth day
Experimental: Toxicity caused when the phosphine transition metal complexes obtained in the examples and the comparative examples were orally administered to rats was tested. Specifically, male and female KM rats were quarantined and raised while being acclimated, and then the selected 20 rats in total including 10 male rats and 10 female rats were formed into a group. The phosphine transition metal complexes obtained in the examples and comparative examples were orally administered once to rats which were fasted over night before the administration and whose weights were recorded, by using corn oil as a solvent and with a design such that a group showing sufficient fatal cases was included to determine LD50.

[1] = tested on: KB (oral squamous cell carcinoma); assay: In vitro anti-tumor activity test (MTT), KB cells; type: cell-based; settings: 48 hours of culture
Experimental: (§1) [In Vitro Anti-Tumor Activity Test]
(§2) The phosphine transition metal complexes obtained in the examples and the comparative examples were subjected to an in vitro anti-tumor activity test. Specifically, KB (oral squamous cell carcinoma) and A375 (malignant melanoma) were used as cancer cells, and these cells were cultured in an incubator at 37° C. in a culture medium (RPMI-1640 or DEME) to which 10% inactivated fetal calf serum, L-glutamine, sodium pyruvate, 1×10^5 U/L of penicillin, and 100 mg/L of streptomycin had been supplemented. The cells were added such that each well contained 2×10^5 cells. Subsequently, the phosphine transition metal complex dissolved in dimethylsulfoxide was added to the medium and cultured for 48 hours. After the 48 hours of culture, a 5 mg/ml (3,[4,5-dimethylthiazol-2-yl]-2,5-diphenyltetrazolium bromide MTT) solution was added at 20 μl to each well, followed by culture for 3 to 4 hours in an incubator. Thereafter, 100 μl of a solution was further added to each well to completely solubilize the generated formazan crystals. The absorbance of the resultant at 492 nm was then measured, and IC50 was calculated.

[2] = tested on: A375 (malignant melanoma); assay: In vitro anti-tumor activity test (MTT), A375 cells; type: cell-based; settings: 48 hours of culture
Experimental: as §1, §2

| Compound | Oral administration LD50 (KM rats) | In vitro anti-tumor activity IC50, KB [1] | In vitro anti-tumor activity IC50, A375 [2] | toxicity (in words) (KM rats; oral administration to rats, compared with the other complexes) |
| --- | --- | --- | --- | --- |
| Bis(2,3-bis(tert-butylmethylphosphino)quinoxaline) gold(I) chloride [Example 2] | 97.44 mg/kg | 1.03 µg/mL | 1.94 µg/mL |  |
| CP(c1nc2ccccc2nc1P(C)C(C)(C)C)C(C)(C)C.CP(c1nc2ccccc2nc1P(C)C(C)(C)C)C(C)(C)C.[Au+].[Cl-] (stereo not shown) [Example 3, Bis(2,3-bis(tert-butylmethylphosphino)quinoxaline)gold(I) chloride] | 118.66 mg/kg | 0.97 µg/mL | 1.22 µg/mL |  |
| CP(c1nc2ccccc2nc1P(C)C(C)(C)C)C(C)(C)C.CP(c1nc2ccccc2nc1P(C)C(C)(C)C)C(C)(C)C.[Au+].[Cl-] (stereo not shown) [Comparative Example 1, Bis(2,3-bis(tert-butylmethylphosphino)quinoxaline)gold(I) chloride, reference compound] | 90.99 mg/kg | 1.11 µg/mL | 2.26 µg/mL | relatively high |
| CP(c1nc2ccccc2nc1P(C)C(C)(C)C)C(C)(C)C.CP(c1nc2ccccc2nc1P(C)C(C)(C)C)C(C)(C)C.[Au+].[Cl-] (stereo not shown) [Example 1, bis(2,3-bis(tert-butylmethylphosphino)quinoxaline)gold(I) chloride] | 134.37 mg/kg | 0.94 µg/mL | 1.13 µg/mL |  |
